Measurements from the NIST ThermoML archive (doi:10.1016/j.fluid.2006.09.025).

Assay: osmotic coefficient (dimensionless); mn = molality of the nth substance listed, in mol/kg
Details: 298.15 K, Liquid, isopiestic method

CCCC[N+](CC)(CC)CC.[I-] [butyltriethylammonium iodide] + O
Details	osmotic coefficient
m1 = 0.0475	0.9775
m1 = 0.0571	0.9735
m1 = 0.076	0.9668
m1 = 0.0898	0.9582
m1 = 0.0991	0.9545
m1 = 0.1499	0.94
m1 = 0.1571	0.93
m1 = 0.1638	0.9298
m1 = 0.1729	0.9266
m1 = 0.189	0.9199
m1 = 0.2281	0.9038
m1 = 0.293	0.8831
m1 = 0.3288	0.8677
m1 = 0.38	0.8544
m1 = 0.4288	0.837
m1 = 0.435	0.834
m1 = 0.4582	0.824
m1 = 0.5067	0.795
m1 = 0.5888	0.77
m1 = 0.7326	0.708
m1 = 0.7462	0.695
m1 = 0.76	0.691
m1 = 0.855	0.655
m1 = 0.9926	0.606
m1 = 1.093	0.569
m1 = 1.132	0.562
m1 = 1.178	0.554
m1 = 1.305	0.523
m1 = 1.503	0.481
m1 = 1.645	0.456
m1 = 1.681	0.45
m1 = 1.738	0.439
m1 = 1.782	0.433
m1 = 1.811	0.428

CCCCCCC[N+](CC)(CC)CC.[I-] [heptyltriethylammonium iodide] + O
Details	osmotic coefficient
m1 = 0.0575	0.8694
m1 = 0.077	0.84
m1 = 0.0876	0.829
m1 = 0.1022	0.815
m1 = 0.1082	0.805
m1 = 0.1205	0.787
m1 = 0.1533	0.757
m1 = 0.1727	0.742
m1 = 0.175	0.736
m1 = 0.1805	0.723
m1 = 0.2592	0.67
m1 = 0.2917	0.642
m1 = 0.3136	0.635
m1 = 0.3583	0.614
m1 = 0.4282	0.58
m1 = 0.4477	0.577
m1 = 0.4858	0.553
m1 = 0.5029	0.548
m1 = 0.5121	0.54
m1 = 0.5894	0.52
m1 = 0.6973	0.486
m1 = 0.787	0.45
m1 = 0.8401	0.434
m1 = 0.89	0.427
m1 = 1.105	0.384
m1 = 1.341	0.34
m1 = 1.504	0.325
m1 = 1.803	0.297
m1 = 1.921	0.289
m1 = 2.205	0.263
m1 = 2.515	0.253
m1 = 2.79	0.247
m1 = 2.96	0.24
m1 = 3	0.242

CCCCCC[N+](CC)(CC)CC.[I-] [hexyltriethylammonium iodide] + O
Details	osmotic coefficient
m1 = 0.0542	0.9221
m1 = 0.0712	0.9085
m1 = 0.0797	0.9098
m1 = 0.0926	0.8987
m1 = 0.0971	0.8963
m1 = 0.107	0.8864
m1 = 0.1332	0.8718
m1 = 0.1502	0.8528
m1 = 0.1517	0.8493
m1 = 0.153	0.8537
m1 = 0.2121	0.819
m1 = 0.232	0.808
m1 = 0.2494	0.798
m1 = 0.2836	0.775
m1 = 0.3308	0.751
m1 = 0.3473	0.744
m1 = 0.3651	0.737
m1 = 0.3804	0.724
m1 = 0.3878	0.713
m1 = 0.4518	0.678
m1 = 0.5224	0.648
m1 = 0.5588	0.633
m1 = 0.5839	0.624
m1 = 0.6237	0.609
m1 = 0.7289	0.582
m1 = 0.8228	0.555
m1 = 0.9203	0.531
m1 = 1.101	0.487
m1 = 1.171	0.475
m1 = 1.275	0.454
m1 = 1.512	0.421
m1 = 1.84	0.375
m1 = 1.94	0.366
m1 = 2.04	0.356
m1 = 2.24	0.337
m1 = 2.344	0.329

CC[N+](C)(CC)CC.[I-] [methyltriethylammonium iodide] + O
Details	osmotic coefficient
m1 = 0.0478	0.739
m1 = 0.0576	0.714
m1 = 0.0766	0.673
m1 = 0.0902	0.648
m1 = 0.0995	0.632
m1 = 0.1505	0.564
m1 = 0.1558	0.556
m1 = 0.1631	0.548
m1 = 0.1721	0.539
m1 = 0.1879	0.523
m1 = 0.2254	0.488
m1 = 0.2898	0.44
m1 = 0.324	0.421
m1 = 0.3742	0.391
m1 = 0.4177	0.371
m1 = 0.4237	0.368
m1 = 0.4447	0.36
m1 = 0.4801	0.347
m1 = 0.5528	0.321
m1 = 0.6505	0.294
m1 = 0.6561	0.295
m1 = 0.6693	0.291
m1 = 0.7286	0.28
m1 = 0.8032	0.265
m1 = 0.8482	0.259
m1 = 0.8851	0.255
m1 = 0.9205	0.249
m1 = 0.9981	0.241
m1 = 1.101	0.232
m1 = 1.2	0.226
m1 = 1.22	0.224
m1 = 1.25	0.223
m1 = 1.29	0.22
m1 = 1.37	0.219

CCCCC[N+](CC)(CC)CC.[I-] [pentyltriethylammonium iodide] + O
Details	osmotic coefficient
m1 = 0.0539	0.9283
m1 = 0.0703	0.9203
m1 = 0.0798	0.9092
m1 = 0.0922	0.903
m1 = 0.0976	0.8923
m1 = 0.1065	0.891
m1 = 0.132	0.8799
m1 = 0.1471	0.8712
m1 = 0.1482	0.8694
m1 = 0.1501	0.8697
m1 = 0.2076	0.8364
m1 = 0.2284	0.821
m1 = 0.2454	0.811
m1 = 0.2742	0.802
m1 = 0.3148	0.789
m1 = 0.3295	0.784
m1 = 0.3456	0.778
m1 = 0.3579	0.77
m1 = 0.3614	0.765
m1 = 0.4108	0.746
m1 = 0.4718	0.718
m1 = 0.498	0.711
m1 = 0.514	0.709
m1 = 0.5434	0.699
m1 = 0.6238	0.68
m1 = 0.6938	0.658
m1 = 0.7814	0.625
m1 = 0.9005	0.595
m1 = 0.9578	0.58
m1 = 1.015	0.571
m1 = 1.199	0.531
m1 = 1.359	0.508
m1 = 1.465	0.485
m1 = 1.549	0.468
m1 = 1.688	0.447

CC[N+](CC)(CC)CC.[I-] [tetraethylammonium iodide] + O
Details	osmotic coefficient
m1 = 0.0519	0.8954
m1 = 0.0633	0.8781
m1 = 0.086	0.8544
m1 = 0.1019	0.8443
m1 = 0.1134	0.834
m1 = 0.1748	0.806
m1 = 0.1826	0.8
m1 = 0.1916	0.795
m1 = 0.2018	0.794
m1 = 0.2218	0.784
m1 = 0.2718	0.758
m1 = 0.3586	0.722
m1 = 0.3999	0.714
m1 = 0.4738	0.685
m1 = 0.5329	0.674
m1 = 0.5415	0.67
m1 = 0.5698	0.662
m1 = 0.6153	0.655
m1 = 0.7181	0.631
m1 = 0.8456	0.613
m1 = 0.8512	0.609
m1 = 0.8671	0.606
m1 = 0.9377	0.597
m1 = 1.032	0.583
m1 = 1.076	0.578
m1 = 1.109	0.574
m1 = 1.151	0.566
m1 = 1.224	0.558
m1 = 1.309	0.553
m1 = 1.373	0.546
m1 = 1.391	0.543
m1 = 1.403	0.544
m1 = 1.429	0.54
m1 = 1.442	0.537

CC[N+](CC)(CC)C(C)C.[I-] [triethylisopropylammonium iodide] + O
Details	osmotic coefficient
m1 = 0.0475	0.9777
m1 = 0.057	0.9749
m1 = 0.0757	0.9713
m1 = 0.0889	0.968
m1 = 0.0981	0.9643
m1 = 0.1471	0.9579
m1 = 0.1528	0.9563
m1 = 0.1597	0.9537
m1 = 0.1682	0.9525
m1 = 0.1838	0.9459
m1 = 0.2194	0.9398
m1 = 0.2793	0.9267
m1 = 0.3108	0.918
m1 = 0.3581	0.9067
m1 = 0.408	0.88
m1 = 0.4103	0.884
m1 = 0.4322	0.8735
m1 = 0.4691	0.8589
m1 = 0.5492	0.825
m1 = 0.6807	0.762
m1 = 0.6907	0.751
m1 = 0.7103	0.74
m1 = 0.8103	0.691
m1 = 0.9083	0.662
m1 = 0.9858	0.631
m1 = 1.081	0.589
m1 = 1.111	0.587
m1 = 1.22	0.559
m1 = 1.326	0.546
m1 = 1.388	0.541
m1 = 1.402	0.539
m1 = 1.428	0.535
m1 = 1.448	0.533
m1 = 1.462	0.53
